{"source": "patent US11407711B2", "about": "“Benzamide compound and use thereof” (METISA BIOTECHNOLOGY CO., LTD., priority 2018, dated 2022)", "assay_type_in_all_cases": "in vivo", "key": {"armyworm": {"tested_on": "armyworm", "assay": "Insecticidal activity against armyworm (Airbrush spray on maize blade segments)", "conditions": "72 h, read-out: fatality rate against armyworm", "procedure": "(§1) The compound to be tested was dissolved by a mixed solvent of acetone/methanol (1:1), and then diluted by water containing 0.1% (wt) Tween 80 to the required concentration.\n(§2) An Airbrush spray method was adopted for the determination of the activity, with armyworm, Plutella xylostella and Chilo suppressalis as targets.\nDetermination method: maize blades were cut into 2 cm (length) segments; with the pressure of Airbrush spray being 10 psi (about 0.7 kg/cm^2), both sides of each blade segment were sprayed with the amount of 0.5 ml. After dried in the shade, each segment was inoculated with 10 3rd-instar larvaes, 3 repeats for each segment. And then, the treated segments were put into an observation room (25° C., relative humidity: 60-70%) for cultivation; the number of the survivals was surveyed 1 d, 2 d and 3 d after administration, and then the death rate was calculated."}, "Plutella xylostella": {"tested_on": "Plutella xylostella", "assay": "Insecticidal activity against Plutella xylostella (Airbrush spray on cabbage leaf discs)", "procedure": "as §1, §2\nDetermination method: cabbage blades were punched into 2 cm (diameter) leaf discs by a puncher; with the pressure of Airbrush spray being 10 psi (about 0.7 kg/cm^2), both sides of each leaf disc were sprayed with the amount of 0.5 ml. After dried in the shade, each leaf disc was inoculated with 10 3rd-instar larvaes, 3 repeats for each leaf disc. And then, the treated leaf discs were put into an observation room (25° C., relative humidity: 60-70%) for cultivation; the number of the survivals was surveyed 1 d, 2 d and 3 d after administration, and then the death rate was calculated."}, "Chilo suppressalis": {"tested_on": "Chilo suppressalis", "assay": "Insecticidal activity against Chilo suppressalis (spray on rice seedlings, stems fed to larvae)", "procedure": "as §1, §2\nDetermination method: 1) preparation of rice seedlings: rice was cultivated in small plastic cups (diameter: 4.5 cm and height: 4 cm) at a constant temperature room (temperature: 26-28° C., relative humidity: 60-80% around and illumination: 16 hL:8 hD), after the rice grew to a 4-5 leaf stage, vigorous and uniform-growth rice seedlings were selected and treated with an insecticide, 3 repeats for each treatment. 2) Preparation of pests for test: 3rd-instar larvaes of Chilo suppressalis fed continuously in the room. 3) Inoculation of pests on rice stems by spray. The whole plants of the rice seedlings were sprayed by a spray method uniformly, with the dose of 15 ml for each treatment. The blank control was treated first, and the above operation was repeated in an order of lower to higher test concentration. After sprayed, rice seedlings were placed in the shade to dry the insecticide liquor, and then stalks about 5 cm above the basal part of the stems were cut to be fed to the pests for test. Glass petri dishes (diameter: […]) were prepared, cushioned by filter paper at the bottom thereof, and subjected to water addition for moisturizing; about 20 pieces of rice stems were put in each dish and inoculated with 10 larvaes; then the petri dishes were closed by non-woven fabrics and placed in a constant temperature room for culture. The number of survivals was surveyed 3 d after administration."}, "[1]": {"conditions": "Chilo suppressalis, 72 h, read-out: fatality rate against Chilo suppressalis"}}, "note": "Where two headings read alike, the source gives them in different places."}
{"smiles": "N#CCN(C(=O)c1ccccc1)c1cccc(C(=O)Nc2c(Br)cc(C(F)(C(F)(F)F)C(F)(F)F)cc2Br)c1F", "note": "[Compound 2.321]", "values": [{"measurement": "pest or weed control at 0.05 µg/mL", "setting": "armyworm", "result": "≥ 90", "unit": "%"}, {"measurement": "pest or weed control at 0.1 µg/mL", "setting": "armyworm", "result": "≥ 90", "unit": "%"}, {"measurement": "pest or weed control at 0.5 µg/mL", "setting": "armyworm", "result": "≥ 90", "unit": "%"}, {"measurement": "pest or weed control at 0.5 µg/mL", "setting": "Plutella xylostella; Plutella xylostella, foliar, 72 h, read-out: Fatality rate (%, 3 d after administration) 0.5 mg/L, Table 73, 0.5 mg/L, 3 d after administration", "result": 100, "unit": "%"}, {"measurement": "pest or weed control at 1 µg/mL", "setting": "Plutella xylostella; Plutella xylostella, foliar, 72 h, read-out: Fatality rate (%, 3 d after administration) 1 mg/L, Table 73, 1 mg/L, 3 d after administration", "result": 100, "unit": "%"}, {"measurement": "pest or weed control at 10 µg/mL", "setting": "Plutella xylostella; Plutella xylostella, foliar, 72 h, read-out: Fatality rate (%, 3 d after administration) 10 mg/L, Table 71, 10 mg/L, 3 d after administration", "result": 100, "unit": "%"}, {"measurement": "pest or weed control at 0.5 µg/mL", "setting": "Plutella xylostella; Plutella xylostella, foliar, 72 h, read-out: fatality rate against Plutella xylostella, 0.5 mg/L, 3 d after administration", "result": "≥ 90", "unit": "%"}, {"measurement": "pest or weed control at 1 µg/mL", "setting": "Plutella xylostella; Plutella xylostella, foliar, 72 h, read-out: fatality rate against Plutella xylostella, 1 mg/L, 3 d after administration", "result": "≥ 90", "unit": "%"}, {"measurement": "Fatality rate (%) 1 d after administration", "setting": "Plutella xylostella; Table 75, fast-acting efficacy, dose 0.5 mg/L, 1 d after administration", "result": 80, "unit": "%"}, {"measurement": "Fatality rate (%) 2 d after administration", "setting": "Plutella xylostella; Table 75, fast-acting efficacy, dose 0.5 mg/L, 2 d after administration", "result": 95, "unit": "%"}, {"measurement": "Fatality rate (%) 3 d after administration", "setting": "Plutella xylostella; Table 75, fast-acting efficacy, dose 0.5 mg/L, 3 d after administration", "result": 100, "unit": "%"}, {"measurement": "pest or weed control at 1 µg/mL", "setting": "Chilo suppressalis; [1]", "result": "≥ 90", "unit": "%"}, {"measurement": "pest or weed control at 4 µg/mL", "setting": "Chilo suppressalis; [1]", "result": "≥ 90", "unit": "%"}, {"measurement": "pest or weed control at 40 µg/mL", "setting": "Chilo suppressalis; [1]", "result": "≥ 90", "unit": "%"}, {"measurement": "Fatality rate (%, 3 d after administration) 1.25 mg/L", "setting": "Chilo suppressalis; Table 77, 1.25 mg/L, 3 d after administration", "result": 95.5, "unit": "%"}, {"measurement": "Fatality rate (%, 3 d after administration) 2.5 mg/L", "setting": "Chilo suppressalis; Table 77, 2.5 mg/L, 3 d after administration", "result": 100, "unit": "%"}, {"measurement": "Fatality rate (%, 3 d after administration) 5 mg/L", "setting": "Chilo suppressalis; Table 77, 5 mg/L, 3 d after administration", "result": 100, "unit": "%"}]}
